This note sets out measurements from patent US20100041642A1, “UREA INHIBITORS OF MAP KINASES” (LOCUS PHARMACEUTICALS, INC., priority 2008, published 2010).

Sequence of p38 (Q16539 whole entry, the tested form may be a part): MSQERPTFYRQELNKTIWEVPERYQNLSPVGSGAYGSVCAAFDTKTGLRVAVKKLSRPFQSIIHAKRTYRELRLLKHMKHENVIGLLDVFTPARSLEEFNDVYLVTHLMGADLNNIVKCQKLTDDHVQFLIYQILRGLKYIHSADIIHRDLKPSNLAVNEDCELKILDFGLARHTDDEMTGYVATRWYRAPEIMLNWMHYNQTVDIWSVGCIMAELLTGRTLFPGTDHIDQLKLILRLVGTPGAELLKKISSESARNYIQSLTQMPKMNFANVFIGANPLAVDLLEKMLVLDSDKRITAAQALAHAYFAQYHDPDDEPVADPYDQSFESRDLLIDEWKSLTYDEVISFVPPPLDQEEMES

The target in this experiment is p38 (Homo sapiens, UniProt Q16539). Kind of experiment: Protein Kinase Assay (33P incorporation from γ-[33P]ATP into GST-ATF-2). As to conditions: 2 nM p38, preincubated 20 min at 30° C.; 10 uM cold ATP, 2 uM GST-ATF2, 70 min; read-out: ACT. (Activity), IC50 category in Protein Kinase Assay. It counts as biochemical. The essentials:
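Compounds preincubated 20 min at 30 °C with 2 nM p38; reaction started with 2 uM GST-ATF-2 (aa 19-96) and 10 uM ATP plus γ-[33P]ATP, pH 7.5, 70 min at 30 °C, 2% DMSO. Phosphoric acid stop; 33P-labelled substrate captured on phosphocellulose and counted by scintillation.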
Consider `Cc1ccc(NC(=O)Nc2sc(C(C)(C)C)cc2C(=O)N2CCNC(=O)C2(C)C)cc1-c1ccc(N2CCCCC2)nc1` [1-(5-tert-butyl-3-(2,2-dimethyl-3-oxopiperazine-1-carbonyl)thiophen-2-yl)-3-(4-methyl-3-(6-(piperidin-1-yl)pyridin-3-yl)phenyl)urea], for which the IC50 (in general, the concentration at which inhibition is half-maximal) is below 100 nM.

Regarding `Cc1ccc(NC(=O)Nc2sc(C(C)(C)C)cc2C(=O)N2CCNC(=O)C2(C)C)cc1-c1ccc(OC2CCOCC2)nc1` [1-(5-tert-butyl-3-(2,2-dimethyl-3-oxopiperazine-1-carbonyl)thiophen-2-yl)-3-(4-methyl-3-(6-(tetrahydro-2H-pyran-4-yloxy)pyridin-3-yl)phenyl)urea], the IC50 is below 100 nM.

Regarding `Cc1ccc(-c2cc(NC(=O)Nc3sc(C(C)(C)C)cc3C(=O)N3CCNC(=O)C3(C)C)ccc2C)nn1` [1-(5-tert-butyl-3-(2,2-dimethyl-3-oxopiperazine-1-carbonyl)thiophen-2-yl)-3-(4-methyl-3-(6-methylpyridazin-3-yl)phenyl)urea], the IC50 is below 100 nM.

For `Cc1ccc(NC(=O)Nc2sc(C(C)(C)C)cc2C(=O)N2CCNC(=O)C2(C)C)cc1-c1ccc(N2CCOCC2)nc1` [1-(5-tert-butyl-3-(2,2-dimethyl-3-oxopiperazine-1-carbonyl)thiophen-2-yl)-3-(4-methyl-3-(6-morpholinopyridin-3-yl)phenyl)urea], the IC50 was below 100 nM.

Take `Cc1ccc(NC(=O)Nc2sc(C(C)(C)C)cc2C(=O)N2CCNC(=O)C2(C)C)cc1-c1ccccn1` [1-(5-tert-butyl-3-(2,2-dimethyl-3-oxopiperazine-1-carbonyl)thiophen-2-yl)-3-(4-methyl-3-(pyridin-2-yl)phenyl)urea]: the IC50 was below 100 nM.

On to `Cc1ccc(NC(=O)Nc2sc(C(C)(C)C)cc2C(=O)N2CCNC(=O)C2(C)C)cc1C#Cc1ccccn1` [1-(5-tert-butyl-3-(2,2-dimethyl-3-oxopiperazine-1-carbonyl)thiophen-2-yl)-3-(4-methyl-3-(pyridin-2-ylethynyl)phenyl)urea], for which the IC50 is below 100 nM.

With `Cc1ccc(NC(=O)Nc2sc(C(C)(C)C)cc2C(=O)N2CCNC(=O)C2(C)C)cc1-c1cccnc1` [1-(5-tert-butyl-3-(2,2-dimethyl-3-oxopiperazine-1-carbonyl)thiophen-2-yl)-3-(4-methyl-3-(pyridin-3-yl)phenyl)urea], the IC50 was below 100 nM.

Take `Cc1ccc(NC(=O)Nc2sc(C(C)(C)C)cc2C(=O)N2CCNC(=O)C2(C)C)cc1-c1ccncc1` [1-(5-tert-butyl-3-(2,2-dimethyl-3-oxopiperazine-1-carbonyl)thiophen-2-yl)-3-(4-methyl-3-(pyridin-4-yl)phenyl)urea]: the IC50 was below 100 nM.

Regarding `Cc1ccc(NC(=O)Nc2sc(C(C)(C)C)cc2C(=O)N2CCNC(=O)C2(C)C)cc1-c1ncccn1` [1-(5-tert-butyl-3-(2,2-dimethyl-3-oxopiperazine-1-carbonyl)thiophen-2-yl)-3-(4-methyl-3-(pyrimidin-2-yl)phenyl)urea], the IC50 is below 100 nM.

With `COc1ccc(-c2ccc(C)c(NC(=O)Nc3sc(C(C)(C)C)cc3C(=O)N3CCNC(=O)C3(C)C)c2)cn1` [1-(5-tert-butyl-3-(2,2-dimethyl-3-oxopiperazine-1-carbonyl)thiophen-2-yl)-3-(5-(6-methoxypyridin-3-yl)-2-methylphenyl)urea], the IC50 was below 100 nM.

For the compound `Cc1nnc(CN2CCN(C(=O)c3cc(C(C)(C)C)sc3NC(=O)Nc3ccc(C)c(-c4ccncc4)c3)C(C)(C)C2=O)o1` [1-(5-tert-butyl-3-(3,3-dimethyl-1-((5-methyl-1,3,4-oxadiazol-2-yl)methyl)-2-oxopiperazine-4-carbonyl)thiophen-2-yl)-3-(4-methyl-3-(pyridin-4-yl)phenyl)urea], the IC50 is below 100 nM.

With `Cc1ccc(NC(=O)Nc2sc(C(C)(C)C)cc2C(=O)N2CCN(C(=O)CN(C)C)CC2)cc1-c1cccnc1` [1-(5-tert-butyl-3-(4-(2-(dimethylamino)ethanoyl)piperazine-1-carbonyl)thiophen-2-yl)-3-(4-methyl-3-(pyridin-3-yl)phenyl)urea], the IC50 is below 1000 nM.

Consider `CCc1ccc(-c2cc(NC(=O)Nc3sc(C(C)(C)C)cc3C(=O)N3CCN(CCN(C)C)C(=O)C3(C)C)ccc2C)cn1` [1-(5-tert-butyl-3-(4-(2-(dimethylamino)ethyl)-2,2-dimethyl-3-oxopiperazine-1-carbonyl)thiophen-2-yl)-3-(3-(6-ethylpyridin-3-yl)-4-methylphenyl)urea], for which the concentration for half-maximal inhibition (IC50) is below 1000 nM.

Regarding `Cc1ccc(NC(=O)Nc2sc(C(C)(C)C)cc2C(=O)N2CCN(CCN(C)C)C(=O)C2(C)C)cc1-c1cccnc1` [1-(5-tert-butyl-3-(4-(2-(dimethylamino)ethyl)-2,2-dimethyl-3-oxopiperazine-1-carbonyl)thiophen-2-yl)-3-(4-methyl-3-(pyridin-3-yl)phenyl)urea], the IC50 is below 100 nM.

With `COc1ccc(-c2cc(NC(=O)Nc3sc(C(C)(C)C)cc3C(=O)N3CCN(CCO)C(=O)C3(C)C)ccc2C)cn1` [1-(5-tert-butyl-3-(4-(2-hydroxyethyl)-2,2-dimethyl-3-oxopiperazine-1-carbonyl)thiophen-2-yl)-3-(3-(6-methoxypyridin-3-yl)-4-methylphenyl)urea], the IC50 is below 100 nM.

Regarding `CC(=O)N1CCN(C(=O)c2cc(C(C)(C)C)sc2NC(=O)Nc2ccc(C)c(-c3cccnc3)c2)CC1` [1-(5-tert-butyl-3-(4-ethanoylpiperazine-1-carbonyl)thiophen-2-yl)-3-(4-methyl-3-(pyridin-3-yl)phenyl)urea], the IC50 was below 100 nM.

Turning to `COc1ccc(-c2cc(NC(=O)Nc3sc(C(C)(C)C)cc3C(=O)N3CCC(=O)N(C)CC3)ccc2C)cn1` [1-(5-tert-butyl-3-(4-methyl-5-oxo-1,4-diazepane-1-carbonyl)thiophen-2-yl)-3-(3-(6-methoxypyridin-3-yl)-4-methylphenyl)urea], the IC50 was below 100 nM.

Regarding `Cc1ccc(NC(=O)Nc2sc(C(C)(C)C)cc2C(=O)N2CCC(=O)N(C)CC2)cc1-c1ccc(N2CCOCC2)cn1` [1-(5-tert-butyl-3-(4-methyl-5-oxo-1,4-diazepane-1-carbonyl)thiophen-2-yl)-3-(4-methyl-3-(5-morpholinopyridin-2-yl)phenyl)urea], the IC50 is below 100 nM.

For the compound `Cc1ccc(NC(=O)Nc2sc(C(C)(C)C)cc2C(=O)N2CCNC(=O)CC2)cc1-c1cnc(N2CCOCC2)nc1` [1-(5-tert-butyl-3-(5-oxo-1,4-diazepane-1-carbonyl)thiophen-2-yl)-3-(4-methyl-3-(2-morpholinopyrimidin-5-yl)phenyl)urea], the IC50 was below 100 nM.

In the case of `Cc1ccc(NC(=O)Nc2sc(C(C)(C)C)cc2C(=O)N2CCNC(=O)CC2)cc1-c1cccnc1` [1-(5-tert-butyl-3-(5-oxo-1,4-diazepane-1-carbonyl)thiophen-2-yl)-3-(4-methyl-3-(pyridin-3-yl)phenyl)urea], the IC50 is below 100 nM.

In the case of `Cc1ccc(NC(=O)Nc2sc(C(C)(C)C)cc2C(=O)N2CCNC(=O)C2(C)C)cc1-c1cccc[n+]1[O-]` [2-(5-(3-(5-tert-butyl-3-(2,2-dimethyl-3-oxopiperazine-1-carbonyl)thiophen-2-yl)ureido)-2-methylphenyl)pyridine 1-oxide], the half-maximal inhibitory concentration (IC50) was below 100 nM.

With `Cc1ccc(NC(=O)Nc2sc(C(C)(C)C)cc2C(=O)N2CCNC(=O)C2(C)C)cc1-c1cc[n+]([O-])cc1` [4-(5-(3-(5-tert-butyl-3-(2,2-dimethyl-3-oxopiperazine-1-carbonyl)thiophen-2-yl)ureido)-2-methylphenyl)pyridine 1-oxide], the IC50 was below 100 nM.
